Assay results reported in patent US12064426B2, “Selective inhibitors of ROCK1 and ROCK2 protein kinases and uses thereof” (GENOSCO Inc., priority 2021, dated 2024).

Assays:
[1] = target: T1, Recombinant ROCK1 (amino acids 1-477) (Homo sapiens, UniProt Q13464); assay: ROCK inhibition assay, LANCE Ultra TR-FRET kinase assay (ROCK1); format: biochemical; conditions: 1 μM ATP, 50 nM ULight-CREBtide substrate
T1 construct: Recombinant ROCK1 (amino acids 1-477); by word order, ROCK1 from Carna Biosciences
T1 sequence (Q13464 1-477): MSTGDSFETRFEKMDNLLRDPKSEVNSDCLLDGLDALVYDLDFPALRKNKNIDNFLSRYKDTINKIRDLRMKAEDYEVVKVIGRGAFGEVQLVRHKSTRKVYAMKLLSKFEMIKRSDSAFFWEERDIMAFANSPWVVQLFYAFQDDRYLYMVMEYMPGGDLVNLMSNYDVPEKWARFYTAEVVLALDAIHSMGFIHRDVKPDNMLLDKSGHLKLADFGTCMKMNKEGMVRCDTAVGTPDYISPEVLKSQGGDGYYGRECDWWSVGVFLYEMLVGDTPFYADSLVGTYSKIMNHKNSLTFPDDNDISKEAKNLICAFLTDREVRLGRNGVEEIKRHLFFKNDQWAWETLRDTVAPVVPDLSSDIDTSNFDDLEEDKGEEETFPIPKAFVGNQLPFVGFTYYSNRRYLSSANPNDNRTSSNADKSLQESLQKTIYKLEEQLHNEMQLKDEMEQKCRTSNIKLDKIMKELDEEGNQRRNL
Summary of the method: (§1)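 LANCE Ultra TR-FRET kinase assay with recombinant ROCK1 (aa 1-477) or ROCK2 (aa 5-554), 50 nM ULight-CREBtide and ATP at 1 μM (ROCK1) or 4 μM (ROCK2) in HEPES pH 7.5 with MgCl2, 1 h at room temperature. EDTA stop with Eu anti-phospho-CREB Ser133 antibody; 665/615 nm read gives IC50.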

[2] = target: T2, Recombinant ROCK2 (amino acids 5-554) (Homo sapiens, UniProt O75116); assay: ROCK inhibition assay, LANCE Ultra TR-FRET kinase assay (ROCK2); format: biochemical; conditions: 4 μM ATP, 50 nM ULight-CREBtide substrate
T2 construct: ROCK2 (amino acids 5-554); by word order, ROCK2 from SignalChem
T2 sequence (O75116 5-554): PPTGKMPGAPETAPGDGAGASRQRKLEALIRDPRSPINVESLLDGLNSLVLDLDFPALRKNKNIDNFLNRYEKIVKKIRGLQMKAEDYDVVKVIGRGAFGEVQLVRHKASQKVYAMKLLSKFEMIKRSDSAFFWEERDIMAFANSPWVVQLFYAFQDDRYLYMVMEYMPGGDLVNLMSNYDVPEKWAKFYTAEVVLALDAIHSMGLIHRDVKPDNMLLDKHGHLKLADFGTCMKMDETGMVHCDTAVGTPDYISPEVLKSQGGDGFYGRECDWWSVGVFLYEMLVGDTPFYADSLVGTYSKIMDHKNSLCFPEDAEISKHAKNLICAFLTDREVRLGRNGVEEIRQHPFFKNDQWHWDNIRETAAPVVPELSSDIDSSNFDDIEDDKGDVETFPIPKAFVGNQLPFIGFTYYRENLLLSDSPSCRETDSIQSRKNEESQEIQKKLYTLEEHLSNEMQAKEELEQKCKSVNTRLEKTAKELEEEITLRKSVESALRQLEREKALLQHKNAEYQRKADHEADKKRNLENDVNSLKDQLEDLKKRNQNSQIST
Summary of the method: as §1

Row | Structure (SMILES) | IC50 [1] | IC50 [2]
1 | C[C@H](c1cccc(C(=O)N(C)C)c1)n1cnc2cc(-c3cn[nH]c3C(F)(F)F)ccc2c1=O [Compound 442] | > 501 nM | > 500 nM
2 | C[C@H](c1cccc(C(=O)N(C)Cc2ccncc2)c1)n1cnc2cc(-c3cn[nH]c3C(F)(F)F)ccc2c1=O [Compound 446] | > 501 nM | > 500 nM
3 | CNC(=O)c1cc([C@@H](C)n2cnc3cc(-c4cn[nH]c4C(F)(F)F)ccc3c2=O)ccc1F [Compound 456] | 101 to 500 nM | 10 to 100 nM
4 | C[C@H](c1cccc(C(=O)NCCO)c1)n1cnc2cc(-c3cn[nH]c3C(F)F)ccc2c1=O [Compound 459] | 101 to 500 nM | 10 to 100 nM
5 | CNC(=O)c1cccc([C@H](C)n2cnc3cc(-c4cn[nH]c4Cl)ccc3c2=O)c1 [Compound 468] | 101 to 500 nM | 10 to 100 nM
6 | Cc1nocc1-c1ccc2c(=O)n([C@H](C)c3cccc(C(=O)N(C)C)c3)cnc2c1 [Compound 470] | > 501 nM | > 500 nM
7 | Cc1nocc1-c1ccc2c(=O)n([C@H](C)c3cccc(C(=O)NCCN4CCOCC4)c3)cnc2c1 [Compound 474] | 11 to 100 nM | < 10 nM
8 | Cc1nocc1-c1ccc2c(=O)n([C@H](C)c3cccc(C(=O)NCC(F)(F)F)c3)cnc2c1 [Compound 475] | 11 to 100 nM | < 10 nM
9 | CNC(=O)c1cccc([C@@H](C)n2cnc3cc(-c4ccnn4C)ccc3c2=O)c1 [Compound 476] | 11 to 100 nM | < 10 nM
10 | [2H]C([2H])([2H])NC(=O)c1cccc([C@@H](C)n2cnc3cc(-c4ccnn4C)ccc3c2=O)c1 [Compound 477] | 11 to 100 nM | < 10 nM
11 | C[C@H](c1cccc(C(=O)N[C@H]2C[C@@H](O)C2)c1)n1cnc2cc(-c3ccnn3C)ccc2c1=O [Compound 478] | 11 to 100 nM | < 10 nM
12 | C[C@H](c1cccc(C(=O)NCC2COC2)c1)n1cnc2cc(-c3ccnn3C)ccc2c1=O [Compound 479] | 11 to 100 nM | < 10 nM
13 | C[C@H](c1cccc(C(=O)NCCO)c1)n1cnc2cc(-c3ccnn3C)ccc2c1=O [Compound 480] | 101 to 500 nM | 10 to 100 nM
14 | CNC(=O)c1cccc([C@@H](C)n2cnc3cc(-c4ccnc(N)c4)ccc3c2=O)c1 [Compound 481] | 101 to 500 nM | 10 to 100 nM
15 | C[C@H](c1cccc(C(=O)N(C)C)c1)n1cnc2cc(-c3ccnc(N)c3)ccc2c1=O [Compound 482] | > 501 nM | > 500 nM
16 | O=c1c2ccc(-c3ccncc3)cc2ncn1C(CO)c1cccc(Cl)c1 (centres unmarked) [Compound 483, 3-(1-(3-chlorophenyl)-2-hydroxyethyl)-7-(pyridin-4-yl)quinazolin-4(3H)-one] | 101 to 500 nM | 10 to 100 nM
17 | Nc1cc(-c2ccc3c(=O)n(C(CO)c4cccc(Cl)c4)cnc3c2)ccn1 (centres unmarked) [Compound 484] | 101 to 500 nM | 10 to 100 nM
18 | Cc1[nH]ncc1-c1ccc2c(=O)n(C(CO)c3cccc(Cl)c3)cnc2c1 (centres unmarked) [Compound 485] | 11 to 100 nM | 10 to 100 nM
19 | O=c1c2ccc(-c3cn[nH]c3Cl)cc2ncn1C(CO)c1cccc(Cl)c1 (centres unmarked) [Compound 487] | 11 to 100 nM | 10 to 100 nM
20 | Cc1nocc1-c1ccc2c(=O)n(C(CO)c3cccc(Cl)c3)cnc2c1 (centres unmarked) [Compound 488] | 101 to 500 nM | 10 to 100 nM

Continued, values first:

Row | IC50 [1] | IC50 [2] | Structure (SMILES)
21 | 11 to 100 nM | < 10 nM | [2H]C([2H])([2H])NC(=O)c1cccc([C@@H](C)n2cnc3cc(-c4cn[nH]c4C(F)(F)F)ccc3c2=O)c1 [Compound 443]
22 | 11 to 100 nM | < 10 nM | CNC(=O)c1cccc([C@H](C)n2cnc3cc(-c4cn[nH]c4C(F)(F)F)ccc3c2=O)c1 [Compound 444]
23 | 11 to 100 nM | < 10 nM | CC(C)NC(=O)c1cccc([C@@H](C)n2cnc3cc(-c4cn[nH]c4C(F)(F)F)ccc3c2=O)c1 [Compound 445]
24 | < 10 nM | < 10 nM | C[C@H](c1cccc(C(=O)NCc2ccncc2)c1)n1cnc2cc(-c3cn[nH]c3C(F)(F)F)ccc2c1=O [Compound 447]
25 | 11 to 100 nM | < 10 nM | C[C@H](c1cccc(C(=O)NC2CCOCC2)c1)n1cnc2cc(-c3cn[nH]c3C(F)(F)F)ccc2c1=O [Compound 449]
26 | < 10 nM | < 10 nM | C[C@H](c1cccc(C(=O)NC2CCN(C)CC2)c1)n1cnc2cc(-c3cn[nH]c3C(F)(F)F)ccc2c1=O [Compound 450]
27 | 11 to 100 nM | < 10 nM | C[C@H](c1cccc(C(=O)NCC2CCOCC2)c1)n1cnc2cc(-c3cn[nH]c3C(F)(F)F)ccc2c1=O [Compound 451]
28 | 11 to 100 nM | < 10 nM | C[C@H](c1cccc(C(=O)NCC2COC2)c1)n1cnc2cc(-c3cn[nH]c3C(F)(F)F)ccc2c1=O [Compound 452]
29 | 11 to 100 nM | 10 to 100 nM | C[C@H](c1cccc(C(=O)NCCO)c1)n1cnc2cc(-c3cn[nH]c3C(F)(F)F)ccc2c1=O [Compound 453]
30 | 11 to 100 nM | < 10 nM | CNC(=O)c1cc(F)cc([C@@H](C)n2cnc3cc(-c4cn[nH]c4C(F)(F)F)ccc3c2=O)c1 [Compound 454]
31 | 11 to 100 nM | < 10 nM | [2H]C([2H])([2H])NC(=O)c1cc(F)cc([C@@H](C)n2cnc3cc(-c4cn[nH]c4C(F)(F)F)ccc3c2=O)c1 [Compound 455]
32 | 11 to 100 nM | < 10 nM | CNC(=O)c1cccc([C@@H](C)n2cnc3cc(-c4cn[nH]c4C(F)F)ccc3c2=O)c1 [Compound 457]
33 | 11 to 100 nM | < 10 nM | [2H]C([2H])([2H])NC(=O)c1cccc([C@@H](C)n2cnc3cc(-c4cn[nH]c4C(F)F)ccc3c2=O)c1 [Compound 458]
34 | < 10 nM | < 10 nM | C[C@H](c1cccc(C(=O)NCCN(C)C)c1)n1cnc2cc(-c3cn[nH]c3C(F)F)ccc2c1=O [Compound 460]
35 | < 10 nM | < 10 nM | C[C@H](c1cccc(C(=O)NCC2CCN(C)CC2)c1)n1cnc2cc(-c3cn[nH]c3C(F)F)ccc2c1=O [Compound 461]
36 | 11 to 100 nM | < 10 nM | C[C@H](c1cccc(C(=O)NCC2CCOCC2)c1)n1cnc2cc(-c3cn[nH]c3C(F)F)ccc2c1=O [Compound 462]
37 | 11 to 100 nM | < 10 nM | CNC(=O)c1cc(F)cc([C@@H](C)n2cnc3cc(-c4cn[nH]c4C(F)F)ccc3c2=O)c1 [Compound 463]
38 | < 10 nM | < 10 nM | C[C@H](c1cccc(C(=O)NC2CCN(C)CC2)c1)n1cnc2cc(-c3cn[nH]c3Cl)ccc2c1=O [Compound 464]
39 | < 10 nM | < 10 nM | C[C@H](c1cccc(C(=O)NCC2CCN(C)CC2)c1)n1cnc2cc(-c3cn[nH]c3Cl)ccc2c1=O [Compound 465]
40 | 11 to 100 nM | < 10 nM | [2H]C([2H])([2H])NC(=O)c1cccc([C@@H](C)n2cnc3cc(-c4cn[nH]c4Cl)ccc3c2=O)c1 [Compound 467]
41 | 11 to 100 nM | < 10 nM | [2H]C([2H])([2H])NC(=O)c1cccc([C@@H](C)n2cnc3cc(-c4conc4C)ccc3c2=O)c1 [Compound 471]
42 | < 10 nM | < 10 nM | Cc1nocc1-c1ccc2c(=O)n([C@H](C)c3cccc(C(=O)NCC4CCN(C)CC4)c3)cnc2c1 [Compound 472]
43 | < 10 nM | < 10 nM | Cc1nocc1-c1ccc2c(=O)n([C@H](C)c3cccc(C(=O)NCC4CCNCC4)c3)cnc2c1 [Compound 473]
